Assay results as given in patent EP2420255A2, “Polypeptide inhibitors of urokinase type plasminogen activator” (Ecole Polytechnique Federale De Lausanne (EPFL), priority 2010, dated 2012).
Read-outs that look alike come from different tables or passages of the source. Numbered stars: 1 amine (or outer) side, 2 acyl side, 3 side chain; on linkers, the order of the positions; unused ones are H or OH. Bridge positions count the residues as written; N and C are the ends. Ends that are not written are not given here. Peptide text beside a SMILES is read from it. TBMB = c1c(C[*:1])cc(C[*:3])cc1C[*:2]

Assays:
uPA [1] = target: T1, uPA (Homo sapiens, UniProt P00749); conditions: literature, cited from earlier work
factor Xa = conditions: literature; cited from earlier work
tPA = tPA (Homo sapiens, UniProt P00750); conditions: literature; cited from earlier work
tPA, sequence (P00750 36-562, species assumed): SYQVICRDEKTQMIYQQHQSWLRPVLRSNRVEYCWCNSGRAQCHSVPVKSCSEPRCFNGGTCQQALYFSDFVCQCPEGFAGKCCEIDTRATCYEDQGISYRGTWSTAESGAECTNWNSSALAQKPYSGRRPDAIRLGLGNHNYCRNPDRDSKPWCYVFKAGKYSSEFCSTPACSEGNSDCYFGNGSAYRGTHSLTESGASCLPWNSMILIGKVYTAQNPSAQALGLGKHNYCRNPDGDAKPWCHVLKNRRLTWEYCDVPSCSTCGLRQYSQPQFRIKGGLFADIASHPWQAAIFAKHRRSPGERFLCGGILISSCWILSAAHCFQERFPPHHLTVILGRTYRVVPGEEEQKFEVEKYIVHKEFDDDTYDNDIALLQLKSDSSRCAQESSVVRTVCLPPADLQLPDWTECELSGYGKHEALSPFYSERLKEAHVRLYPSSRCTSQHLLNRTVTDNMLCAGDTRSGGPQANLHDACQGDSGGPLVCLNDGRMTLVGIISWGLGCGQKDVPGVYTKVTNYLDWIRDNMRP

plasma kallikrein = plasma kallikrein (Homo sapiens, UniProt P03952); conditions: literature; cited from earlier work
plasma kallikrein, sequence (P03952 391-638 limits assumed, species assumed): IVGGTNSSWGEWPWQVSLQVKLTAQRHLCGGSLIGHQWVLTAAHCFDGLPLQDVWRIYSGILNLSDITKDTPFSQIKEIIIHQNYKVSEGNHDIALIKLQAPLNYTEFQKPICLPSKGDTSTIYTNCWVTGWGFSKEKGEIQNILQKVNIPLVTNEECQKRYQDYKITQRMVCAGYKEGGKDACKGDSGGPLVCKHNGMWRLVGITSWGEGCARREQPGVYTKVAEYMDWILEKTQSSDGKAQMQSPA
plasma kallikrein, sequence (P03952 20-390 partner limits assumed, species assumed): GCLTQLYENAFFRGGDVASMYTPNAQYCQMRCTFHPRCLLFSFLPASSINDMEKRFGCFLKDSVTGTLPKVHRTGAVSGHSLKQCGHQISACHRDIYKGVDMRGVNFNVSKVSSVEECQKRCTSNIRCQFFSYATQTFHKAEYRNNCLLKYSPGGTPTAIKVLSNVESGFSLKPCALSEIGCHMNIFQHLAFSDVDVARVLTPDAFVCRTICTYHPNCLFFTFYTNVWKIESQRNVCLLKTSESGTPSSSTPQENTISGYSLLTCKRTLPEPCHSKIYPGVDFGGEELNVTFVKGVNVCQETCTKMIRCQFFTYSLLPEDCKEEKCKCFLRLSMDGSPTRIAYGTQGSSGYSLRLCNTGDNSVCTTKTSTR

thrombin = conditions: literature; cited from earlier work
uPA [2] = target: T1, uPA; conditions: literature; cited from earlier work
[3] = tested on: murine lung carcinoma model; conditions: literature; cited from earlier work
MDA-MB-231 cells = assay: Cell viability assay (CellTiter-Glo, ATP concentration); assay type: cell-based, human; conditions: 24 hrs, UK18 1-100 µM
Method: MDA-MB-231 human breast adenocarcinoma cells (ATCC) were cultured in RPMI medium (RPMI-1640 containing 25 mM HEPES and L-glutamine; NEAA, 100X Stock, and 1 unit/ml penstrep, 20'000 units/ml penicillin and 20'000 units/ml streptomycin stock, Lonza, Visp, Switzerland) supplemented with 5% v/v fetal calf serum (FCS, Lonza) at 37 °C in a humidified 5% CO2/95% air atmosphere.
The effect of UK18 on the MDA-MB-231 cell viability was measured by using the CellTiter-Glo Luminescent Cell Viability Assay (Promega, Madison, WI, USA). The assay measures the number of viable cells in culture based on the ATP concentration. 200 µL of 2.0 x 10^5 MDA-MB-231 cells/ml in RPMI media (FCS-free) supplemented with 0.2% w/v BSA were inoculated at a density of 4.0 x 10^4 cells per well in 96-well opaque walled polystyrene plate tissue culture treated (Corning Incorporated, Corning, NY, USA) for 24 hrs at 37 °C in a humidified 5% CO2/95% air atmosphere. The culture supernatant was then removed and 100 µl of new RPMI media (FCS-free) supplemented with 0.2% w/v BSA containing different three-fold dilution concentrations of UK18 (1, 3.3, 10, 33 and 100 µM) were added to the cells and the plate incubated for 24 hrs at 37 °C in a humidified 5% CO2/95% air atmosphere. […] The luminescence signal was finally recorded using a Tristar LB 941 microplate reader (Berthold Technologies, Bad Wildbad, Germany). […]

uPA [4] = target: T1, uPA; assay: Activity determination of chemically synthesized inhibitors, residual protease activity; assay type: biochemical; design: human uPA (UPA-LMW, from human urine, 33 kDa); purchased Molecular Innovations, Novi, MI, USA UPA-LMW; host or cells: human urine; conditions: synthetic peptide-TBMB conjugate, pH 7.4, 25°C
Method: (§1) Peptides with a free amine at the N-terminus and an amide at the C-terminus were chemically synthesized on a 50 mg to 1 g scale by solid phase chemistry (JPT Peptide Technologies, Berlin, Germany or GL Biochem Ltd., Shanghai, China). The crude peptides (1 mM) in 1 ml 5% v/v DMSO, 65% v/v 20 mM NH4HCO3, pH 8.0 and 30% v/v ACN, were reacted with TBMB (1.2 mM) for 1 hr at 30 °C. The reaction product was purified by preparative reversed-phase high performance liquid chromatography (HPLC) system (PrepLC 4000, Waters, Millford, MA, USA) and a Vydac C18 (218TP) column (22 x 250 mm) (Grace & Co., USA). At a flow rate of 20 ml/min, a linear gradient was applied with a mobile phase composed of eluant A (0.1% v/v aqueous trifluoroacetic acid (TFA) solution, 99.9 % v/v H2O) and eluant B (94.9% v/v ACN, 5% v/v H2O and 0.1 % v/v TF A). The purified peptides were freeze-dried and dissolved in H2O for activity measurements.
(§2) Residual activities were measured in buffer containing 10 mM Tris-Cl, pH 7.4, 150 mM NaCl, 10 mM MgCl2, 1mM CaCl2, 0.1% w/v BSA, 0.01% v/v Triton-X100 and 5% v/v DMSO in volume of […]. […] Absorption and fluorescence intensity were measured with a Spectramax absorption plate reader (recording at 410 nm; Molecular Devices, USA) and a Spectramax Gemini fluorescence plate reader (excitation at 355 nm, emission at 460 nm; Molecular Devices, USA), respectively. […]

Murine uPA = target: T2, Murine uPA (Mus musculus, UniProt P06869); assay: Specificity determination of chemically synthesized inhibitors, residual protease activity; assay type: biochemical; conditions: murine uPA versus human uPA
T2 construct: mouse uPA (MUPA-LMW, recombinantly produced in insect cells, 31 kDa); purchased Molecular Innovations, Novi, MI, USA MUPA-LMW; host or cells: insect cells
T2 sequence (P06869 180-433 limits assumed): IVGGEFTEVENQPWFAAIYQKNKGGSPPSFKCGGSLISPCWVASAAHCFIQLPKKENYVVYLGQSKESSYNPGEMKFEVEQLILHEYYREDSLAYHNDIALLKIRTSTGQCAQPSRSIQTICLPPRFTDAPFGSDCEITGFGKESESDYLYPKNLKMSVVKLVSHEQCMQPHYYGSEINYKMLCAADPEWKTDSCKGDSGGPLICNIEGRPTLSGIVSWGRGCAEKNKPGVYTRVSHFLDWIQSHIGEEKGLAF
Method: as §1, §2

## CSWRGLENHRMC (cysteine pairing not given here) [upain-1]
uPA [1]; at pH 6.0
  Ki: 6700 nM
uPA [1]; at physiological pH
  Ki: 29900 nM

## N=C(N)c1ccc(CNC(=O)[C@H](CO)NC(=O)[C@@H](CO)NS(=O)(=O)Cc2ccccc2)cc1 [CJ-463, benzylsulfonyl-D-Ser-Ser-4-amidinobenzylamide]
Factor Xa
  inhibition: does not inhibit significantly
tPA
  inhibition: does not inhibit significantly
Plasma kallikrein
  inhibition: does not inhibit significantly
thrombin
  inhibition: does not inhibit significantly
uPA [2]
  Ki: 20 nM
[3]
  primary tumour growth and metastasis formation: reduce primary tumour growth and metastasis formation

## CC(C)[C@@H]1NC(=O)[C@H](CCC(=O)O)NC(=O)[C@H](Cc2ccc(O)cc2)NC(=O)[C@H](CCCN=C(N)N)NC(=O)[C@H](CO)NC(=O)[C@@H](NC(=O)[C@H](C)N)CSCc2cc3cc(c2)CSC[C@H](NC(=O)[C@H](CC(=O)O)NC1=O)C(=O)N[C@@H](CCCN=C(N)N)C(=O)NCC(=O)N[C@@H](CCCN=C(N)N)C(=O)NCC(=O)N[C@@H](CO)C(=O)N[C@@H](C)C(=O)N[C@H](C(=O)NCC(N)=O)CSC3 [UK18] (H-ACSRYEVDCRGRGSACG-NH2; linker 2-9-16 via TBMB)
MDA-MB-231 cells
  cell viability: not toxic
uPA [4]
  IC50: 47.2 nM
uPA [4]; corresponding to the IC50
  Ki: 30.1 nM

## CC(C)[C@@H]1NC(=O)[C@H](CCC(=O)O)NC(=O)[C@H](Cc2ccc(O)cc2)NC(=O)[C@H](CCCNC(=N)N)NC(=O)[C@H](CO)NC(=O)[C@@H](NC(=O)[C@H](C)N)CSCc2cc3cc(c2)CSC[C@H](NC(=O)[C@H](CC(=O)O)NC1=O)C(=O)N[C@@H](CCCNC(=N)N)C(=O)NCC(=O)N[C@@H](CCCNC(=N)N)C(=O)NCC(=O)N[C@@H](CO)C(=O)N[C@@H](C)C(=O)N[C@H](C(=O)NCC(N)=O)CSC3 [UK18] (H-ACSRYEVDCRGRGSACG-NH2; linker 2-9-16 via TBMB)
Murine uPA
  Ki higher than the Ki of human uPA: around 1400 times
